In article PMC8491550 (Journal of Medicinal Chemistry, 2021):
“Also recorded” adds a separate entry of the source. Like-named read-outs stand apart in the source and are kept apart here.

Tests used:
SARS-CoV-2 M^pro [1] = target: T1, SARS-CoV-2 M^pro (Severe acute respiratory syndrome coronavirus 2, UniProt P0DTD1); assay: Preincubation dilution experiment; assay type: biochemical
SARS-CoV-2 M^pro [2] = target: T1, SARS-CoV-2 M^pro; assay: Steady-state enzyme kinetics, inhibition mechanism; assay type: biochemical
[3] = tested on: SARS-CoV-2 (USA_WA01/2020) in Vero E6 cells; assay: Antiviral assay in SARS-CoV-2-infected Vero E6 cells; assay type: cell-based; settings: read-out: Antiviral EC50, MOI 0.01, 72 h, cell proliferation
[4] = tested on: SARS-CoV-2 USA-WA1/2020 in human iPSC-derived lung organoids
[5] = 10 μM preincubation 30 min, 10× dilution

COc1ccc(Cn2[se]c3ccccc3c2=O)c(OC)c1 [Compound E07, 2-(2,4-Dimethoxybenzyl)benzo[d][1,2]selenazol-3(2H)-one]
type of inhibition from preincubation dilution (SARS-CoV-2 M^pro [1]; [5]): reversible covalent inhibitor

O=c1c2ccccc2[se]n1-c1ccc(C(F)(F)F)cc1 [Compound E04, 2-(4-(Trifluoromethyl)phenyl)benzo[d][1,2]selenazol-3(2H)-one]
type of inhibition from preincubation dilution (SARS-CoV-2 M^pro [1]; [5]): rapidly reversible inhibitor | mechanism of inhibition (SARS-CoV-2 M^pro [2]; 0.5-10 μM inhibitor, 1.5-30 μM substrate, global fit to mixed model): likely competitive inhibitors

O=c1c2ccccc2[se]n1-c1ccccc1 [Compound E01, 2-Phenylbenzo[d][1,2]selenazol-3(2H)-one, reference compound]
type of inhibition from preincubation dilution (SARS-CoV-2 M^pro [1]): reversible covalent inhibitor | mechanism of inhibition (SARS-CoV-2 M^pro [2]): likely competitive inhibitors

2-(4-Chlorophenyl)benzo[d][1,2]selenazol-3(2H)-one [Compound E15]
EC50 [3]: 11.2 ± 1.3 µM

O=c1c2ccccc2[se]n1-c1cccc(Cl)c1 [Compound E19, 2-(3-Chlorophenyl)benzo[d][1,2]selenazol-3(2H)-one]
type of inhibition from preincubation dilution (SARS-CoV-2 M^pro [1]; [5]): rapidly reversible inhibitor

O=c1c2ccccc2[se]n1-c1cccc(C(F)(F)F)c1 [Compound E24, 2-(3-(Trifluoromethyl)phenyl)benzo[d][1,2]selenazol-3(2H)-one]
reduction of viral RNA levels, intracellular fraction [4]: ~50% | reduction of viral RNA levels, supernatant fraction [4]: ~50% | toxicity toward the organoids ([4]; 5 μM, 72 h): no observable toxicity

O=c1c2ccccc2[se]n1-c1cc(Cl)cc(Cl)c1 [Compound E20, 2-(3,5-Dichlorophenyl)benzo[d][1,2]selenazol-3(2H)-one]
type of inhibition from preincubation dilution (SARS-CoV-2 M^pro [1]; [5]): reversible covalent inhibitor

N#Cc1cccc(-n2[se]c3ccccc3c2=O)c1 [Compound E25, 3-(3-Oxobenzo[d][1,2]selenazol-2(3H)-yl)benzonitrile]
type of inhibition from preincubation dilution (SARS-CoV-2 M^pro [1]; [5]): some recovery of the enzymatic activity but not a complete recovery; also recorded: reversible covalent inhibitor
